Source: patent US20090181931A1, “ANTIVIRAL ACTIVITY OF CIDOFOVIR AGAINST ONCOLYTIC VIRUSES” (priority 2008, published 2009)
Values joined by “and” are separate entries in the source; they are usually repeats but may differ in a detail not shown here. Equal entries are not always repeated.

What was measured:
H1299 cells = assay: XTT cell viability assay, CDV alone, H1299 cells; type: cell-based; conditions: for Relative cell viability Ave. / Relative cell viability: H1299, no virus, 7 days; for Relative cell viability: single wells, dihydrate
Description: (§1) Cells frozen in liquid nitrogen were thawed in water bath at 37° C., seeded at T25 flask, and cultured at 70-90% sub-confluent monolayer. Cells were detached with trypsin, and prepared suspension at a concentration of 1.0×10^4 cells/ml.
(§2) Cells were seeded in 96 well-plate (100 μL/well, 1000 cells/well), then cultured with 5% CO2 at 37° C.
(§3) Viruses were diluted at MOI of 1 (OBP-301, OBP-202) in H1299 and 5 in A549 (PFU/cell). Medium in each well was removed, 150 μL of diluted virus solution was added to each well of the plate. 2 hours later, medium was aspirated and replaced with fresh medium containing 2% FCS and serially diluted CDV. Cells were incubated with 5% CO2 at 37° C. for 7 days after infection.
as §3, with “0.1 (OBP-401) or 10 (ONYX-015)” for “1 (OBP-301, OBP-202)”, “H1299.” for “H1299 and 5 in A549 (PFU/cell).”, “50” for “150”
(§4) 100 μL of PBS, 50 μL of XTT labeling reagent, and 1 μL of ion coupling reagent per well of plate were mixed.
Medium in each well of plate was removed, and 150 μL of mixture prepared above was added to each well. Plate was incubated with 5% CO2 at 37° C. for 4 hours, and then calculated absorbance at 450 nm and 690 nm. Protection was determined by the formula below: […]

Telomelysin (OBP-301) = assay: XTT assay, protection from cytopathic effect of Telomelysin in H1299 cells; type: cell-based, adenovirus; conditions: for Protection (%) Ave. / Protection (%): Telomelysin MOI 1, H1299, 7 days; for Protection (%): single wells, dihydrate
Description: as §1, §2, §3, §4
Medium in each well of plate was removed, and 150 μL of mixture prepared above was added to each well. Plate was incubated with 5% CO2 at 37° C. for 4 hours, and then calculated absorbance at 450 nm and 690 nm. Protection was determined by the formula below:
Protection(%)={OD(AdV(+):CDV(+))−OD(AdV(+):CDV(−))}/{OD(AdV(−):CDV(+))−OD(AdV(+):CDV(−))}×100.

## Nc1ccn(C[C@@H](CO)OCP(=O)(O)O)c(=O)n1.O.O [CDV, 1-[(S)-3-hydroxy-2-(phosphonomethoxy)propyl]cytosine dihydrate]
H1299 cells; CDV 0.01 μM, Table 4A
  Relative cell viability Ave.: 1.014
  Relative cell viability: 0.978 and 1.068 and 1.002 and 1.009
H1299 cells; CDV 0.01 μM, Table 4B
  Relative cell viability Ave.: 0.992
  Relative cell viability: 0.970 and 1.010 and 0.999 and 0.990
H1299 cells; CDV 0.06 μM, Table 4A
  Relative cell viability Ave.: 0.996
  Relative cell viability: 0.945 and 1.070 and 0.997 and 0.972
H1299 cells; CDV 0.06 μM, Table 4B
  Relative cell viability Ave.: 0.985
  Relative cell viability: 0.950 and 1.019 and 0.990 and 0.981
H1299 cells; CDV 0.32 μM, Table 3A
  Relative cell viability Ave.: 1.074
  Relative cell viability: 0.963 and 1.073 and 1.171 and 1.087
H1299 cells; CDV 0.32 μM, Table 4A
  Relative cell viability Ave.: 1.020
  Relative cell viability: 0.977 and 1.068 and 1.001 and 1.032
H1299 cells; CDV 1.6 μM, Table 3A
  Relative cell viability Ave.: 1.017
  Relative cell viability: 0.970 and 1.043 and 1.110 and 0.945
H1299 cells; CDV 1.6 μM, Table 4A
  Relative cell viability Ave.: 1.030
  Relative cell viability: 0.981 and 1.061 and 1.044 and 1.033
H1299 cells; CDV 1.6 μM, Table 4B
  Relative cell viability Ave.: 0.990
  Relative cell viability: 0.984 and 0.996 and 0.983 and 0.997
H1299 cells; CDV 8 μM, Table 3A
  Relative cell viability Ave.: 1.010
  Relative cell viability: 0.912 and 1.037 and 1.043 and 1.047
H1299 cells; CDV 8 μM, Table 4A
  Relative cell viability Ave.: 0.989
  Relative cell viability: 0.918 and 1.022 and 1.016 and 0.999
H1299 cells; CDV 8 μM, Table 4B
  Relative cell viability Ave.: 0.925
  Relative cell viability: 0.913 and 0.935 and 0.928 and 0.923
H1299 cells; CDV 40 μM, Table 3A
  Relative cell viability Ave.: 0.923
  Relative cell viability: 1.004 and 0.919 and 0.876 and 0.894
H1299 cells; CDV 40 μM, Table 4A
  Relative cell viability Ave.: 0.695
  Relative cell viability: 0.709 and 0.677 and 0.686 and 0.706
H1299 cells; CDV 40 μM, Table 4B
  Relative cell viability Ave.: 0.600
  Relative cell viability: 0.588 and 0.574 and 0.628 and 0.609
H1299 cells; CDV 200 μM, Table 3A
  Relative cell viability Ave.: 0.398
  Relative cell viability: 0.401 and 0.420 and 0.362 and 0.411
H1299 cells; CDV 200 μM, Table 4A
  Relative cell viability Ave.: 0.199
  Relative cell viability: 0.221 and 0.203 and 0.185 and 0.186
H1299 cells; CDV 200 μM, Table 4B
  Relative cell viability Ave.: 0.136
  Relative cell viability: 0.135 and 0.128 and 0.145 and 0.134
H1299 cells; CDV 1000 μM, Table 4A
  Relative cell viability Ave.: 0.037
  Relative cell viability: 0.033 and 0.043 and 0.036 and 0.037
H1299 cells; CDV 1000 μM, Table 4B
  Relative cell viability Ave.: 0.015
  Relative cell viability: 0.021 and 0.013 and 0.012 and 0.015
H1299 cells; H1299 cells, high concentrations
  toxicity of CDV itself: toxic
Telomelysin (OBP-301); CDV 0.32 μM
  Protection (%) Ave.: 7.983%
  Protection (%): 10.293% and 11.665% and 3.980% and 5.993%
Telomelysin (OBP-301); CDV 1.6 μM
  Protection (%) Ave.: 0.274%
  Protection (%): 3.339% and −5.901% and 1.144% and 2.516%
Telomelysin (OBP-301); CDV 8 μM
  Protection (%) Ave.: 3.065%
Telomelysin (OBP-301); CDV 40 μM
  Protection (%) Ave.: 83.829%
  Protection (%): 88.243% and 72.049% and 84.950% and 90.073%
Telomelysin (OBP-301); CDV 200 μM
  Protection (%) Ave.: 29.369%
  Protection (%): 29.414% and 30.878% and 28.957% and 28.225%
Telomelysin (OBP-301); H1299 cells, FIG. 1A
  Telomelysin-mediated cytopathic effect: apparently inhibited
Telomelysin (OBP-301); NCI-H1299, Telomelysin, H1299 cells, XTT, read-out: EC50, CDV concentration that archive the protection to 50%
  EC50: 20.4 µM
